PMC10698726 (Molecular Pharmaceutics, 2023)
Where two headings read alike, the source gives them in different places.

Assays:
OCT2 [1] = target: T1, OCT2 (Homo sapiens, UniProt O15244); assay: Inhibition of model substrate uptake in OCT2-overexpressing HEK293 cells; settings: for inhibition at 5 min, 20 μM: human, OCT2-overexpressing HEK293 cells
T1 sequence (O15244 1-555): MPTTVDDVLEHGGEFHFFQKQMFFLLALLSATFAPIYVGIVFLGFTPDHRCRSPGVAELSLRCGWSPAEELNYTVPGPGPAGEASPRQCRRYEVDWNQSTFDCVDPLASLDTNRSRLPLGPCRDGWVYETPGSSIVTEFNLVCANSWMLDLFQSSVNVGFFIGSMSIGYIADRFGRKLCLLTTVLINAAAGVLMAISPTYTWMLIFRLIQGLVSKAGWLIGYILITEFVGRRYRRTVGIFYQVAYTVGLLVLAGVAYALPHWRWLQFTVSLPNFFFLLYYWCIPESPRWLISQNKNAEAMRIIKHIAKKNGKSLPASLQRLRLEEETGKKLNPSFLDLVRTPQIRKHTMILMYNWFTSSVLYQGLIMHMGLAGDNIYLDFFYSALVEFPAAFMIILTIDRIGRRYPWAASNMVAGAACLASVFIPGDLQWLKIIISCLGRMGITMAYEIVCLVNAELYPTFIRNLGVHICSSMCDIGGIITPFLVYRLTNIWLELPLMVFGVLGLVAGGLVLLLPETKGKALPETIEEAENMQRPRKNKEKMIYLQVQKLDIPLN

OCT3 [2] = target: T2, OCT3 (Homo sapiens, UniProt O75751); assay: Inhibition of model substrate uptake in OCT3-overexpressing HEK293 cells; format: cell-based; settings: 20 μM inhibitor, 5 min
T2 construct: expressed in transfected cells; host or cells: HEK293
T2 sequence (O75751 1-556): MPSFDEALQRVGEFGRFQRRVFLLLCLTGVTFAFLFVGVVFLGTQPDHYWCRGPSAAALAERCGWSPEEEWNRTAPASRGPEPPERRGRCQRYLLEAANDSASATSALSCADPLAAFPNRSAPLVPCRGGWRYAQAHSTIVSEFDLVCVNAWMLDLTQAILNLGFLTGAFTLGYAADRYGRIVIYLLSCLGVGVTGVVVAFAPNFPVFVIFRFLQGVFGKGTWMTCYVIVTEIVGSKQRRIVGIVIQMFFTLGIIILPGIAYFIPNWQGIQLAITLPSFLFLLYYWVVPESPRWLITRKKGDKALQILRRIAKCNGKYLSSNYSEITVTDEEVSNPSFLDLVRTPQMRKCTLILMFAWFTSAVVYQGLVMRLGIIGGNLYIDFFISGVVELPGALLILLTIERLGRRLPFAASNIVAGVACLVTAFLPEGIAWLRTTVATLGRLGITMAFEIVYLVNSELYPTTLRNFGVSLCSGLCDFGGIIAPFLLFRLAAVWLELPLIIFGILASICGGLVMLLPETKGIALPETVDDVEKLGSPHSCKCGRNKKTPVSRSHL
Outline: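 IC50 values were fitted with a Hill equation from net uptake, calculated as uptake in overexpressing HEK293 cells minus empty-vector control uptake. Cells were exposed for 5 min to 2 μM model substrate alone, with 20 μM inhibitor, or with a concentration series. Uptake was quantified by ASP^+ fluorescence or LC–MS/MS after lysis in 80% acetonitrile.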

[3] = citalopram; multiple doses (40 mg, once daily for 21 d), oral administration; cited from earlier work
OCT1 [4] = target: T3, OCT1 (Homo sapiens, UniProt O15245); assay: Inhibition of model substrate uptake in OCT1-overexpressing HEK293 cells; format: cell-based; design: expressed in transfected cells; host or cells: HEK293; settings: OCT1, 20 μM inhibitor, 5 min; for inhibition at 5 min, 20 μM: human, OCT1-overexpressing HEK293 cells
T3 sequence (O15245 1-554): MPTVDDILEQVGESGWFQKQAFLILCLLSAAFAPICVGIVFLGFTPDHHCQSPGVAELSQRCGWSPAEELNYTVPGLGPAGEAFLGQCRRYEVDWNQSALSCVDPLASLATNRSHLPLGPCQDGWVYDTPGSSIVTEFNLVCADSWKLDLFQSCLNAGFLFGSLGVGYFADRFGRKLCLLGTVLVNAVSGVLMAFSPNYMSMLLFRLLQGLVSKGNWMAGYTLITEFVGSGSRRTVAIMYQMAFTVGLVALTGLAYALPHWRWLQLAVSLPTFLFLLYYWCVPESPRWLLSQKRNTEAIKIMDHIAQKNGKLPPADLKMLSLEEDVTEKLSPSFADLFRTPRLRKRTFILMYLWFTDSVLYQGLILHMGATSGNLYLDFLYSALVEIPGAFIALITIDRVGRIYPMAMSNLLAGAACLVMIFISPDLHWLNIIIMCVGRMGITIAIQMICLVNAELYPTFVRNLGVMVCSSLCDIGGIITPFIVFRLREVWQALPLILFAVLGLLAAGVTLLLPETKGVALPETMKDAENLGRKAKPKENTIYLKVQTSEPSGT
Description: (§1) Koepsell and Gorbulev (University of Würzburg, Germany).
Fluorescence quantification was performed in technical duplicates.

OCT3 [5] = target: T2, OCT3; assay: Concentration-dependent uptake of model substrates, OCT3-overexpressing HEK293 cells; format: in vitro ADME; settings: vmax over Km, this study
Description: as §1
(§2) Prior to inhibition studies, the used model substrates were validated in concentration-dependent uptake experiments if no literature data were available (Table S2 and Figures S2 and S3). Thereby, we ensured that the model substrate concentration used in the subsequent inhibition experiments was sufficiently below the Km value of its uptake kinetics. […] On the day of the experiment, the cells were washed once with prewarmed to 37 °C HBSS (Thermo Fisher Scientific, Darmstadt, Germany) supplemented with 10 mM HEPES and pH adjusted to 7.4 (Sigma-Aldrich)—hereafter termed HBSS+. For concentration-dependent experiments, the cells were incubated with increasing substrate concentrations for 2 min. Uptake was terminated by adding ice-cold HBSS+. Afterward, the cells were washed twice with ice-cold HBSS+, and cell lysis was done with 80% (v/v) acetonitrile (LGC Standards, Wesel, Germany) to which an internal standard for eventual LC–MS/MS analysis had been added. Intracellularly accumulated substrates were then quantified by LC–MS/MS analysis, and calibration was performed with known concentrations of the respective substances. All uptake data were normalized to the number of seeded cells by measuring the total protein content in radioimmunoprecipitation assay buffer-lysed cells in a bicinchoninic acid assay.[29]

OCT1 [6] = target: T3, OCT1; assay: Concentration-dependent uptake of model substrates, OCT1-overexpressing HEK293 cells; format: in vitro ADME; design: expressed in transfected cells; host or cells: HEK293; settings: vmax over Km, this study
Description: as §1, §2

OCT2 [7] = target: T1, OCT2; assay: Concentration-dependent uptake of model substrates, OCT2-overexpressing HEK293 cells; format: in vitro ADME; design: expressed in transfected cells; host or cells: HEK293; settings: vmax over Km, this study
Description: as §1, §2

NET = target: T4, NET (Homo sapiens, UniProt P23975); assay: Concentration-dependent MPP+ uptake, NET-overexpressing HEK293 cells; format: in vitro ADME; settings: this study
T4 construct: expressed in transfected cells; host or cells: HEK293
Description: as §1, §2

DAT = target: T5, DAT (Homo sapiens, UniProt Q01959); assay: Concentration-dependent MPP+ uptake, DAT-overexpressing HEK293 cells; format: in vitro ADME; settings: this study
T5 construct: expressed in transfected cells; host or cells: HEK293
Description: as §1, §2

SERT = target: T6, SERT (Homo sapiens, UniProt P31645); assay: Concentration-dependent MPP+ uptake, SERT-overexpressing HEK293 cells; format: in vitro ADME; settings: this study
T6 construct: expressed in transfected cells; host or cells: HEK293
Description: as §1, §2

OCT1 [8] = target: T3, OCT1; settings: cited from earlier work
[9] = ref 2 (Matthaei et al., 2016, supplement)

T5 sequence (Q01959 whole entry): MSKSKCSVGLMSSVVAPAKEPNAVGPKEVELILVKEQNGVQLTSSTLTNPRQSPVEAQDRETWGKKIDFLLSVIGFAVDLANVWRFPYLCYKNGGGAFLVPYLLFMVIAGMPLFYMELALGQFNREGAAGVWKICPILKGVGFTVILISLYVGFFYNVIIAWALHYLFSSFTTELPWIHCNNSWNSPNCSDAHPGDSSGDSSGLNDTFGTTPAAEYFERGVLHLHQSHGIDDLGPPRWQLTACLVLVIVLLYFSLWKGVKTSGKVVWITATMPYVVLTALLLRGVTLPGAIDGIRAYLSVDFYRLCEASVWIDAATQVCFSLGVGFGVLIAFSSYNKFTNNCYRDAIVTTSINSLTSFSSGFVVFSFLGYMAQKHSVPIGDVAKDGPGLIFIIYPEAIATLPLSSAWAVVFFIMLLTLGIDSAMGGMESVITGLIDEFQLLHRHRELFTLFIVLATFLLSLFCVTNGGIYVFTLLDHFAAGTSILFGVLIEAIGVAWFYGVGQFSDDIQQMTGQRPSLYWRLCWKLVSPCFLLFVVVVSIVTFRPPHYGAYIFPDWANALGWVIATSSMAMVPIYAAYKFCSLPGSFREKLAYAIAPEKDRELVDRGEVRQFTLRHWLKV
T6 sequence (P31645 whole entry): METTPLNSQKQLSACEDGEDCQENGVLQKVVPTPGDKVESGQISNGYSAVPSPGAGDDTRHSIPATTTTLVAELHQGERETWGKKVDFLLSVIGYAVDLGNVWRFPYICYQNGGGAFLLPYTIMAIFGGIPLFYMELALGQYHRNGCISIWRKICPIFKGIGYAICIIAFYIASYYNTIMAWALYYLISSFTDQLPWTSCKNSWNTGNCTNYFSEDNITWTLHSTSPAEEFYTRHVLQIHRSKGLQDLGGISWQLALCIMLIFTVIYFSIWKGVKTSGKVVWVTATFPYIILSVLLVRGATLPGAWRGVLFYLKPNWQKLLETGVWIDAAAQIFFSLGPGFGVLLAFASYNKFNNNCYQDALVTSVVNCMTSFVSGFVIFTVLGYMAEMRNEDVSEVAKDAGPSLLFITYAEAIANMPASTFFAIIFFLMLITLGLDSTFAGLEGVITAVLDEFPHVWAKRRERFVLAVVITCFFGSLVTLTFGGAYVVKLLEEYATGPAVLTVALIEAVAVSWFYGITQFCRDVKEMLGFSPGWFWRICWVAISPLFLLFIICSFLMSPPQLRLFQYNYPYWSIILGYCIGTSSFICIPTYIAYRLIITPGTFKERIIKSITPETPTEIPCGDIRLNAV
T4 sequence (P23975 whole entry): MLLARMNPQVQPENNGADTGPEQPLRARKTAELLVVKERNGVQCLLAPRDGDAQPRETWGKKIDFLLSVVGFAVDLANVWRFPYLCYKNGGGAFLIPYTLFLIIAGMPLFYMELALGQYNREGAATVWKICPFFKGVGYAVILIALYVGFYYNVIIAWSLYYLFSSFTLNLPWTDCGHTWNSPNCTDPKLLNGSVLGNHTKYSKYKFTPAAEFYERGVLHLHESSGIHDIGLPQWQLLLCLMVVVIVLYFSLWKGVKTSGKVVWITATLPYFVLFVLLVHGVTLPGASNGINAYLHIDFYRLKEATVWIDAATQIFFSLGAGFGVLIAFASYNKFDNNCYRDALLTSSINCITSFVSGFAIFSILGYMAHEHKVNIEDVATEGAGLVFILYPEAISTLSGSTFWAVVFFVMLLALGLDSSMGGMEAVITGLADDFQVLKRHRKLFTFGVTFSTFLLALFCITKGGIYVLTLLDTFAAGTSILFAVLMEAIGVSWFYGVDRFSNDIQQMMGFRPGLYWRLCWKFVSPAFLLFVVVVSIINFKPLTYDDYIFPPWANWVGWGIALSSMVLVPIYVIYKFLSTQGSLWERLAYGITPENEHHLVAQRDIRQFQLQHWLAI

## CN(C)CCC[C@@]1(c2ccc(F)cc2)OCc2cc(C#N)ccc21 [(S)-Citalopram]
OCT2 [1]; IC50 [μM], OCT2, Table 1
  IC50: 10.7 µM
OCT2 [1]; pH 7.4, probe (S,S)-ethambutol (2 μM), (S,S)-Ethambutol inhibition [%], OCT2, 20 μM inhibitor, 2 μM (S,S)-ethambutol, 5 min
  inhibition at 5 min, 20 μM: -9.7%
OCT2 [1]; pH 7.4, probe ASP+ (2 μM), ASP+ inhibition [%], OCT2, 20 μM inhibitor, 2 μM ASP+, 5 min
  inhibition at 5 min, 20 μM: 68.6%
OCT2 [1]; pH 7.4, probe N-ethyllidocaine (2 μM), N-Ethyllidocaine inhibition [%], OCT2, 20 μM inhibitor, 2 μM N-ethyllidocaine, 5 min
  inhibition at 5 min, 20 μM: 26.5%
OCT3 [2]; HEK293, 5 min, read-out: (S)-Zolmitriptan inhibition [%], OCT3, 2 μM (S)-zolmitriptan
  inhibition at 20 µM: 19.2%
OCT3 [2]; HEK293, 5 min, read-out: (S,S)-Ethambutol inhibition [%], OCT3, 2 μM (S,S)-ethambutol
  inhibition at 20 µM: 31.7%
OCT3 [2]; HEK293, OCT3, 2 μM ASP+, read-out: ASP+ inhibition [%]
  inhibition at 20 µM: 10.9%
[3]
  Imax: 0.154 µM
OCT1 [4]; pH 7.4, probe (S,S)-ethambutol (2 μM), (S,S)-Ethambutol inhibition [%], 2 μM (S,S)-ethambutol
  inhibition at 5 min, 20 μM: 80.1%
OCT1 [4]; pH 7.4, probe ASP+ (2 μM), 2 μM ASP+, mean of three experiments, read-out: ASP+ inhibition [%]
  inhibition at 5 min, 20 μM: 37.2%
OCT1 [4]; pH 7.4, probe sumatriptan (2 μM), 2 μM sumatriptan, read-out: Sumatriptan inhibition [%]
  inhibition at 5 min, 20 μM: 77.6%

## CCC(CO)NCCNC(CC)CO [(S,S)-Ethambutol]
OCT2 [1]; OCT2, 20 μM inhibitor, 2 μM ASP+, 5 min
  ASP+ inhibition [%]: 38.8%
OCT2 [1]; OCT2, 20 μM inhibitor, 2 μM N-ethyllidocaine, 5 min
  N-Ethyllidocaine inhibition [%]: 10.0%
OCT3 [2]; OCT3, 2 μM (S)-zolmitriptan
  (S)-Zolmitriptan inhibition [%]: -1.3%
OCT3 [2]; OCT3, 2 μM ASP+
  ASP+ inhibition [%]: 3.7%
OCT3 [5]
  Clint ± SEM: 16.9
OCT1 [4]; 2 μM ASP+, mean of three experiments
  ASP+ inhibition [%]: 5.5%
OCT1 [4]; 2 μM sumatriptan
  Sumatriptan inhibition [%]: 17.8%
OCT1 [6]
  Clint ± SEM: 14.1
OCT2 [7]
  Clint ± SEM: 36.6

## C[n+]1ccc(-c2ccccc2)cc1 [MPP+, 1-methyl-4-phenylpyridinium]
NET
  vmax ± SEM [pmol × mg Protein−1 × min−1]: 381 pmol × mg Protein−1 × min−1
NET; read-out: Km ± SEM
  Km: 2.5 µM
NET; vmax over Km
  Clint ± SEM: 152
DAT
  vmax ± SEM [pmol × mg Protein−1 × min−1]: 2107 pmol × mg Protein−1 × min−1
DAT; read-out: Km ± SEM
  Km: 20.1 µM
DAT; vmax over Km
  Clint ± SEM: 104
SERT
  vmax ± SEM [pmol × mg Protein−1 × min−1]: 627 pmol × mg Protein−1 × min−1
SERT; read-out: Km ± SEM
  Km: 21.1 µM
SERT; vmax over Km
  Clint ± SEM: 29.7

## CNS(=O)(=O)Cc1ccc2[nH]cc(CCN(C)C)c2c1 [Sumatriptan]
OCT1 [8]; read-out: Km ± SEM, ref 2 (Matthaei et al., 2016, supplement)
  Km: 55.4 µM
OCT1 [8]; [9]
  Clint ± SEM: 17.6
  vmax ± SEM [pmol × mg Protein−1 × min−1]: 978 pmol × mg Protein−1 × min−1
